Data set [1] concerns the target Coagulation factor VII/tissue factor (Homo sapiens, UniProt P08709). The data set is described as follows: Inhibition of human recombinant soluble tissue factor-factor 7a using H-D-Ile-Pro-Arg-pNA as substrate. Type of data set: protein-complex assay.
Data set [2] deals with Trypsin (Homo sapiens, UniProt P07477+P07478+P35030). The data set is described as follows: Inhibition of trypsin (unknown origin). Type of data set: protein assay.
Data set [3] has as its target Prothrombin (Homo sapiens, UniProt P00734). Put plainly: Inhibition of thrombin (unknown origin).
Data set [4] addresses Coagulation factor X (Homo sapiens, UniProt P00742). Put plainly: Inhibition of factor 10a (unknown origin).
For data set [5], the target named is T1, Coagulation factor VII/tissue factor (Homo sapiens) (UniProt P08709+P13726). The data set is described as follows: Noncompetitive inhibition of human recombinant soluble tissue factor-factor 7a using physiological substrate. Type of data set: protein-complex assay.
For data set [6], the target named is T1, Coagulation factor VII/tissue factor (Homo sapiens). The data set is described as follows: Competitive inhibition of human recombinant soluble tissue factor-factor 7a using tripeptide as substrate. It counts as protein-complex assay.
Data set [7] is described as follows: Dissociation constant, pKa of the compound. It counts as physicochemical.
Data set [8] in a line: Anticoagulant activity in plasma (unknown origin) assessed as concentration required to double prothrombin time. Type of data set: functional, unidentified.
A short description of data set [9]: Oral bioavailability in dog at 0.5 mg/kg. It counts as ADME, organism-based, Canis lupus familiaris. Conditions: in vivo.
A short description of data set [10]: Volume of distribution at steady state in dog at 0.2 mg/kg, iv. Type of data set: ADME, organism-based, Canis lupus familiaris. Further details: dose 0.2 mg/kg, route intravenous. The following applies: in vivo, read-out: Vdss.
Data set [11] can be described thus: Half life in dog at 0.2 mg/kg, iv. Type of data set: ADME, organism-based, Canis lupus familiaris. Details: dose 0.2 mg/kg, route intravenous. The following applies: in vivo.
Data set [12] can be described thus: Clearance in dog at 0.2 mg/kg, iv. Type of data set: ADME, organism-based, Canis lupus familiaris. Details: dose 0.2 mg/kg, route intravenous. The following applies: in vivo.

The structures appear in SMILES notation. Calls of active or inactive are those of the source. The rule behind the calls is not given here. Some results are limits rather than exact numbers.

Sequence of Coagulation factor VII/tissue factor (P08709 61-212 limits assumed): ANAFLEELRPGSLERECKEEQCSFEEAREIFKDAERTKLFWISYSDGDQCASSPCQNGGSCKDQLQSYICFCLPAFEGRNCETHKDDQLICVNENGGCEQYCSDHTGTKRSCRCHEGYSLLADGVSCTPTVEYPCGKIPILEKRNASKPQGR
Sequence of Coagulation factor VII/tissue factor (P08709 213-466 limits assumed): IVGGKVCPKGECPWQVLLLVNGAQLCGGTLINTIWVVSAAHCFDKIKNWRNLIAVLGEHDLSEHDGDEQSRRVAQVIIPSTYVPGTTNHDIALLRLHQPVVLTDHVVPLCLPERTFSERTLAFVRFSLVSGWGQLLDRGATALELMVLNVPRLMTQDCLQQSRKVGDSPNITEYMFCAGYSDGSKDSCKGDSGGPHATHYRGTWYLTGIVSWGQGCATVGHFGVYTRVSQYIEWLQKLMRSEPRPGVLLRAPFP
Sequence of Coagulation factor VII/tissue factor (P13726 33-295 partner limits assumed): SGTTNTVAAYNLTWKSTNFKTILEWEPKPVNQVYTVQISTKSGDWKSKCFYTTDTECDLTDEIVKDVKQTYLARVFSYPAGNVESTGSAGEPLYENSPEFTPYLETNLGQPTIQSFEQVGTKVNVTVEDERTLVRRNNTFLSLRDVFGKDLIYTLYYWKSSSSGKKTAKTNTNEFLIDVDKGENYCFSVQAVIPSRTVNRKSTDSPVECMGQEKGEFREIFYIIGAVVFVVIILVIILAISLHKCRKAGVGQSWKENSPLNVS
Sequence of Coagulation factor X (P00742 41-179 limits assumed): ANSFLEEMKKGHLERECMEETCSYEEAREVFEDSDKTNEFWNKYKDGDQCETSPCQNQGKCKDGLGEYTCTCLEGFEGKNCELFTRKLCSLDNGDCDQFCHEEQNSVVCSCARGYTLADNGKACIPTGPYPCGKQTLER
Sequence of Coagulation factor X (P00742 235-488 limits assumed): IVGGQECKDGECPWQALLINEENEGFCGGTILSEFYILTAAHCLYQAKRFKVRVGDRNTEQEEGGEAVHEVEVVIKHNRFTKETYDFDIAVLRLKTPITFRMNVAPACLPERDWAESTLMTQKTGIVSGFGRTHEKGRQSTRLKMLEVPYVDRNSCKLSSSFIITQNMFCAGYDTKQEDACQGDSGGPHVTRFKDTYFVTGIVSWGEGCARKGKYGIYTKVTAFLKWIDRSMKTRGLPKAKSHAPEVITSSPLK

Usually Ki stands for a measure of affinity in units of concentration, obtained from inhibition or displacement. Consider `CCOc1cc(C(Nc2ccc3nc(N)[nH]c3c2)C(=O)NS(=O)(=O)c2ccccc2)ccc1OC(C)C` (centres undefined), for which, in data set [1], the Ki was 0.67 µM.

A word on the pKa: it is the pH at which an ionisable group is half protonated. Regarding `CCOc1cc(C(Nc2ccc3cnccc3c2)C(=O)NS(=O)(=O)c2ccccc2)ccc1OC(C)C` (centres undefined), the Ki was over 5 µM in data set [2], over 13 µM in [3], 5.4 µM in [4] and 0.07 µM in data set [1]. Besides, the inhibition result in data set [5] and in [6] was “Active” each time. Further, the pKa in data set [7] is 7.8.

For the compound `CCOc1cc([C@@H](Nc2ccc3cnccc3c2)C(=O)NS(=O)(=O)c2cccc(S(N)(=O)=O)c2)ccc1OC(C)C`, the inhibition constant (Ki) in data set [2] was over 5 µM; in data set [3], over 13 µM; in data set [4], over 8 µM; in data set [1], 0.017 µM.

For `CCOc1cc(C(Nc2ccc3cnccc3c2)C(=O)NS(=O)(=O)c2ccc(S(N)(=O)=O)cc2)ccc1OC(C)C` (centres undefined), the Ki in data set [2] was over 5 µM; in [3], over 13 µM; in [4], over 8 µM; in data set [1], 0.32 µM.

Turning to `CCOc1cc(C(Nc2ccc3c(N)nccc3c2)C(=O)NS(=O)(=O)c2cccc(O)c2)ccc1OC(C)C` (centres undefined), the Ki is over 5 µM in data set [2], 11 µM in data set [3], 5.5 µM in data set [4] and 0.026 µM in [1].

As to `CCOc1cc(C(Nc2ccc3cnccc3c2)C(=O)NS(=O)(=O)c2cccc(S(=O)(=O)N(C)C)c2)ccc1OC(C)C` (centres undefined), the Ki was over 5 µM in data set [2], over 13 µM in [3], 7.2 µM in [4] and 0.78 µM in [1].

Take `CCOc1cc([C@H](Nc2ccc3c(N)nccc3c2)C(=O)NS(=O)(=O)c2ccccc2)ccc1OC(C)C`: the inhibition constant Ki in data set [2] was over 5 µM; in data set [3], over 13 µM; in [4] it was 8.2 µM.

Regarding `CCOc1cc(C(Nc2ccc3cnccc3c2)C(=O)NS(=O)(=O)c2cccc(S(N)(=O)=O)c2)ccc1OC(C)C` (centres undefined), the Ki in [2] was over 5 µM; in data set [3], over 13 µM; in data set [4], over 8 µM; in data set [1], 0.032 µM.

In the case of `CCOc1cc(C(Nc2ccc3c(N)ncnc3c2)C(=O)NS(=O)(=O)c2ccccc2)ccc1OC(C)C` (centres undefined), the inhibitory constant (Ki) in data set [1] was 0.39 µM.

As to `CCOc1cc(C(Nc2ccc3cnccc3c2)C(=O)NS(=O)(=O)c2cccc(S(C)(=O)=O)c2)ccc1OC(C)C` (centres undefined), the inhibition constant (Ki) in [2] is over 5 µM; in data set [3] it was over 13 µM; in data set [4], over 8 µM; in data set [1], 0.145 µM.

As for `CCOc1cc(C(Nc2ccc3cnccc3c2)C(=O)NS(=O)(=O)c2ccccc2S(=O)(=O)CC)ccc1OC(C)C` (centres undefined), the Ki is over 5 µM in data set [2], 9.4 µM in [3], over 8 µM in data set [4] and 0.006 µM in data set [1].

With `CCOc1cc(C(Nc2ccc3c(N)nccc3c2)C(=O)NS(=O)(=O)c2ccc(C)cc2)ccc1OC(C)C` (centres undefined), the Ki in data set [2] was 3.04 µM; in data set [3], 2.9 µM; in data set [4], 3.05 µM; in data set [1], 0.197 µM.

Turning to `CCOc1cc(C(Nc2ccc3c(N)noc3c2)C(=O)NS(=O)(=O)c2ccccc2)ccc1OC(C)C` (centres undefined), the inhibition constant Ki in [1] turned out to be 1.94 µM.

As for `CCOc1cc(C(Nc2ccc3cnccc3c2)C(=O)NS(=O)(=O)c2ccccc2S(N)(=O)=O)ccc1OC(C)C` (centres undefined), the inhibition constant (Ki) in data set [2] is over 5 µM; in data set [3], over 13 µM; in [4] it was over 8 µM; in data set [1] it was 0.073 µM.

For `CCOc1cc(C(Nc2ccc3c(N)nccc3c2)C(=O)NS(=O)(=O)c2cccc(C(N)=O)c2)ccc1OC(C)C` (centres undefined), the Ki was over 5 µM in [2], over 13 µM in data set [3], over 8 µM in [4] and 0.018 µM in [1].

Take `CCOc1cc(C(Nc2ccc3c(N)nccc3c2)C(=O)NS(=O)(=O)c2ccccc2)ccc1OC(C)C` (centres undefined): the inhibition constant Ki in [2] is 4.7 µM; in [3], 4.3 µM; in data set [4], 3.5 µM. Moreover, the inhibition entry in [5] and in data set [6] was “Active” in each case. In addition, in data set [7], the pKa came out at 8.9.

For `CCOc1cc(C(Nc2ccc3cnccc3c2)C(=O)NS(=O)(=O)c2ccc(S(C)(=O)=O)cc2)ccc1OC(C)C` (centres undefined), the inhibition constant Ki in data set [2] was over 5 µM; in [3] it was over 13 µM; in data set [4], over 8 µM; in data set [1] it was 8.1 µM.

In the case of `CCOc1cc(C(Nc2ccc3cnccc3c2)C(=O)NS(=O)(=O)c2ccccc2S(C)(=O)=O)ccc1OC(C)C` (centres undefined), the Ki is over 5 µM in data set [2], 10.3 µM in data set [3], over 8 µM in [4] and 0.012 µM in data set [1]. Moreover, the 2PT in data set [8] was determined as 76 µM.

Regarding `CCOc1cc(C(Nc2ccc(C(=N)N)cc2)C(=O)NS(=O)(=O)c2ccccc2)ccc1OC(C)C` (centres undefined), the 2PT in data set [8] is 4 µM. The inhibition entry in [5] and in data set [6] was “Active” each time. Besides, the inhibition constant Ki in [1] came to 0.0013 µM.

For `CCOc1cc(C(Nc2ccc3cnccc3c2)C(=O)NS(=O)(=O)c2cccc(S(=O)(=O)NC)c2)ccc1OC(C)C` (centres undefined), the Ki in [2] was over 5 µM; in [3] it was over 13 µM; in data set [4], 7 µM; in data set [1], 0.25 µM.

Take `CCOc1cc(C(Nc2ccc3c(N)n[nH]c3c2)C(=O)NS(=O)(=O)c2ccccc2)ccc1OC(C)C` (centres undefined): the Ki in data set [1] came to 2.9 µM.

For the compound `CCOc1cc([C@@H](Nc2ccc3c(N)nccc3c2)C(=O)NS(=O)(=O)c2cccc(S(N)(=O)=O)c2)ccc1OC(C)C`, the Ki was over 5 µM in data set [2], 9.4 µM in data set [3], 5.6 µM in data set [4] and 0.0028 µM in [1]. Also, the 2PT in data set [8] amounted to 14 µM.

`CCOc1cc(C(Nc2ccc3c(N)nccc3c2)C(=O)NS(=O)(=O)c2cccc(CO)c2)ccc1OC(C)C` (centres undefined): the Ki was over 5 µM in data set [2], 11 µM in data set [3], over 8 µM in data set [4] and 0.028 µM in data set [1].

For `CCOc1cc(C(Nc2ccc3c(N)nccc3c2)C(=O)NS(=O)(=O)c2ccc(N)cc2)ccc1OC(C)C` (centres undefined), the Ki in data set [2] was over 5 µM; in data set [3] it was 7.4 µM; in data set [4] it was 5.8 µM; in data set [1] it was 0.009 µM.

In the case of `CCOc1cc(C(Nc2ccc3c(N)nccc3c2)C(=O)NS(=O)(=O)c2cccc(N)c2)ccc1OC(C)C` (centres undefined), the Ki in data set [2] is over 5 µM; in [3] it was over 13 µM; in data set [4], over 8 µM; in [1], 0.048 µM.

One may read the bioavailability as dose-corrected exposure relative to a reference, in per cent. As a reminder, the half-life is the time in which the quantity being followed falls by half. The low end stands for rapid decline, the high end for slow decline. As usually defined, the clearance is a measure of how efficiently the substance is removed, as volume per time. Lower therefore signals a low capacity for elimination. In the case of `CCOc1cc([C@@H](Nc2ccc3c(N)nccc3c2)C(=O)NS(=O)(=O)c2ccccc2)ccc1OC(C)C`, in [9], the bioavailability worked out at 4%. Moreover, in [10], the Vd was determined as 1.5 L/kg. Further, the half-life in data set [11] was 1.5 h. In data set [12], the clearance was 24 mL/min/kg. In addition, the Ki in data set [2] was over 5 µM; in data set [3], 6.9 µM; in [4], 7.3 µM. For the same compound, in [8], the 2PT was 36 µM.

In turn, `CCOc1cc([C@@H](Nc2ccc3cnccc3c2)C(=O)NS(=O)(=O)c2ccccc2)ccc1OC(C)C` yielded a bioavailability in data set [9] of 36%. Also, in [10], the Vd was 0.6 L/kg. Also, in [11], the half-life is 0.9 h. The compound further had a clearance in [12] of 9.3 mL/min/kg. Also, the Ki was over 5 µM in [2], over 13 µM in data set [3], over 8 µM in [4] and 0.044 µM in data set [1]. For the same compound, the 2PT in data set [8] was over 80 µM.

In the case of `CCOc1cc(C(Nc2ccc3c(N)nccc3c2)C(=O)NS(=O)(=O)c2ccc(O)cc2)ccc1OC(C)C` (centres undefined), the Ki is over 5 µM in data set [2], over 13 µM in data set [3], over 8 µM in [4] and 0.007 µM in [1].

As to `CCOc1cc(C(Nc2ccc3c(N)nccc3c2)C(=O)NS(=O)(=O)c2cccc(S(N)(=O)=O)c2)ccc1OC(C)C` (centres undefined), the inhibitory constant (Ki) was over 5 µM in [2], over 13 µM in [3], 5.9 µM in [4] and 0.01 µM in data set [1].

The record behind these values is ChEMBL document CHEMBL2429763, “Nonbenzamidine acylsulfonamide tissue factor-factor VIIa inhibitors” (Bioorg Med Chem Lett, 2013).
